Measurements reported in patent US10828317B2, “Method of treating bacterial infections” (priority 2016, dated 2020).
≈ marks a conversion by molar mass, not a printed value. Read-outs that look alike come from different tables or passages of the source.

Tests used:
S. aureus strain no 13 = assay: MIC vs S. aureus LMG 15975, MRSA; conditions: Staphylococcus aureus
K. pneumoniae EN0262 = conditions: commercial antibiotics; data provided by IMBIM, BMC, Uppsala University; cited from earlier work
S. flexneri APV00906 = assay: microbe, parasite or virus in culture; format: cell-based
Description: (§1) Inhibition of Heliobacter is important in view of increasing resistance and its association to gastric cancer.

S. flexneri APV00907 = assay: MIC and antibiogram; format: cell-based; conditions: for Antibiogram category (resistance pattern): letter before the MIC
Description: as §1

S. sonnei APV00908 = assay: MIC and antibiogram; format: cell-based

Molecule	MIC (K. pneumoniae EN0262)	Antibiogram MIC (S. flexneri APV00906)	Antibiogram MIC (S. flexneri APV00907)	Antibiogram MIC (S. sonnei APV00908)	further results
COc1cc(Cc2cnc(N)nc2N)c2c(c1OC)OC(C1CC1)C=C2 (stereo not shown) [Iclaprim, iclaprim]					MIC (S. aureus strain no 13; NO13, read-out: MIC Iclaprim, Uridine 0 μg/ml): > 16 µg/mL; MIC (S. aureus strain no 13; NO13, read-out: MIC Iclaprim, Uridine 100 μg/ml): > 16 µg/mL
C[C@@H](O)[C@H]1C(=O)N2C(C(=O)O)=C(S[C@@H]3CN[C@H](C(=O)N(C)C)C3)[C@H](C)[C@H]12 [MEM, meropenem]	>8 µg/mL				
CN(C)c1cc(NC(=O)CNC(C)(C)C)c(O)c2c1C[C@H]1C[C@H]3[C@H](N(C)C)C(O)=C(C(N)=O)C(=O)[C@@]3(O)C(O)=C1C2=O [TGC, tigecycline]	2 µg/mL (≈ 3.41 µM)				
amoxicillin-clavulanic acid [AMC]	>64 µg/mL	4 µg/mL	16 µg/mL	≤ 2 µg/mL	Antibiogram category (resistance pattern) (S. flexneri APV00907): |
colistin [CST]	1 µg/mL				
gentamicin	1 µg/mL	4 µg/mL	≤ 1 µg/mL	≤ 1 µg/mL	Antibiogram category (resistance pattern) (S. flexneri APV00906; letter before the MIC): R*; Antibiogram category (resistance pattern) (S. flexneri APV00907): R*; Antibiogram category (resistance pattern) (S. sonnei APV00908; letter before the MIC): R*
piperacillin-tazobactam [TZP]	64 µg/mL	≤ 4 µg/mL	≤ 4 µg/mL	≤ 4 µg/mL	
trimethoprim-sulfamethoxazole [SXT]	4 µg/mL	≥ 320 µg/mL	≥ 320 µg/mL	≥ 160 µg/mL	
